Data as given in patent publication US9949976B2, “Kinase inhibitor and use thereof” (Sihuan Pharmaceutical Holdings Group Ltd., priority 2013, dated 2018).
Where two headings read alike, the source gives them in different places.

Key:
[1] = Pharmacokinetics in nude mouse (IV and PO); format: in vivo; conditions: female, BALB/c nude, plasma; for Vd: read-out: Vss; for bioavailability: read-out: F (absolute bioavailability)
Experimental: Test animal: female nude mouse (BALB/c); control agent: 3 mice/administration route at each time point, weight: 22-25 g/mouse; Compound 1: 3 mice/administration route at each time point, weight: 22-25 g/mouse; Compound 6-1: 6 mice/administration route/test compound, weight: 18-26 g/mouse.
Control agent/Compound 1, IV administration group: before administration, 0.083, 0.25, 0.5, 1, 2, 4, 6, 8, 24, and 30 h after administration; PO administration group (10 mg/kg): before administration, 0.167, 0.5, 1, 2, 4, 6, 8, 24, and 30 h after administration.
Compound 1, PO administration group (100 mg/kg): 0.167, 0.5, 1, 2, 4, 6, 8, 24, 30, and 48 h after administration.
Compound 6-1, IV administration group (2.5 mg/kg) and PO administration group (10 mg/kg): 0.083, 0.25, 0.5, 1, 2, 4, 6, 8 and 24 h after administration; Compound 6-1, PO administration group (100 mg/kg): 0.083, 0.25, 0.5, 1, 2, 4, 6, 8, 24, 30, 48 h after administration.
Control agent/Compound 1: 300 μL whole blood was collected from intraocular canthus at each time point, and was centrifuged at 8000 r/min for 6 min in a high speed centrifuge to separate the plasma; the plasma was stored in a refrigerator at −80° C. Compound 6-1: 60 μL whole blood was collected from intraocular canthus at each time point, and was placed in an anticoagulation tube containing anticoagulant agent K2EDTA; the blood sample was centrifuged at 8000 r/min for 6 min to obtain a plasma sample.
The plasma samples of control agent and compound 1 were analyzed by precipitation of protein: to 50 μL plasma, 200 μL internal standard (acetonitrile solution containing 500 ng/mL Warfarin) was added; the resultant mixture was vortexed for 3 min at 1500 r/min, and centrifuged for 5 min at 13000 r/min; to 100 μL supernatant, 400 μL water was added; the resultant mixture was mixed homogeneously under vortexing and analyzed by LC-MS/MS.
The plasma sample of compound 6-1 was analyzed by precipitation of protein: to a suitable amount of plasma, a given volume of internal standard solution was added; the resultant mixture was vortexed and centrifuged; the supernatant was diluted by adding a given volume of water; the resultant mixture was mixed homogeneously under vortexing and analyzed by LC-MS/MS.

[2] = In vivo assay for blood brain barrier permeability in rat; conditions: male, SD, 30 mg/kg, PO
Experimental: Test animal: male SD rat, 3 rats/test compound/time point, weight: 250-300 g/rat
After separate PO administration of control agent and compound 1, blood was collected by cardiac puncture at 2, 4, 24 and 48 h; about 8 ml whole blood was collected, and placed in a centrifuge tube containing K2EDTA anticoagulant agent; cerebrospinal fluid and brain tissue were also collected at the same time, 3 rats at each time point. The collected whole blood was centrifuged at 3000 r/min at 4° C. in a high speed centrifuge for 10 min to separate the plasma; and the plasma was stored in a refrigerator at −80° C. After sample collection, the concentrations of control agent and compound 1 in plasma, brain tissue and cerebrospinal fluid were determined, respectively.
The plasma samples of control agent and compound 1 were analyzed by precipitation of protein: the test samples were taken from the refrigerator (−80° C.), thawed at room temperature, and then vortexed for 3 min; to 30 μL plasma, 200 μL internal standard (acetonitrile solution containing 25 ng/mL PD0332991) was added; the resultant mixture was vortexed for 10 min at 1500 r/min, and centrifuged at 4000 r/min for 20 min; to 100 μL supernatant, 100 μL water was added; the resultant mixture was mixed homogeneously under vortexing and analyzed by LC-MS/MS.
The brain tissue and cerebrospinal fluid samples for control agent and compound 1 were analyzed by precipitation of protein: the test samples were taken from the refrigerator (−80° C.), thawed at room temperature, and then vortexed for 3 min; to 20 μL homogenated brain tissue sample, 200 μL internal standard (a solution of methanol and water at 1:1 containing 40 ng/mL dextromethorphan and 50 ng/mL dextrorphan) was added; the resultant mixture was vortexed for 3 min at 1500 r/min, and centrifuged at 4° C., 4000 g for 5 min; to 100 μL supernatant, 50 μL 0.1% formic acid-water was added; the resultant mixture was mixed homogeneously under vortexing and analyzed by LC-MS/MS. Cerebrospinal fluid sample was treated by the same way as the homogenated brain tissue sample.

Row | Compound | AUC(0-t) ([1]; IV, 5 mg/kg) | clearance ([1]; IV, 5 mg/kg) | Vd ([1]; IV, 5 mg/kg) | AUC(0-t) ([1]; PO, 10 mg/kg) | Cmax ([1]; PO, 10 mg/kg) | Tmax ([1]; PO, 10 mg/kg) | bioavailability ([1]; PO, 10 mg/kg) | AUC(0-t) ([1]; PO, 100 mg/kg) | Cmax ([1]; PO, 100 mg/kg) | Tmax ([1]; PO, 100 mg/kg) | bioavailability ([1]; PO, 100 mg/kg) | AUC(0-t) ([2]; dose 30, brain tissue) | Cmax ([2]; dose 30, brain tissue) | Tmax ([2]; dose 30, brain tissue) | AUC(0-t) ([2]; dose 30, cerebrospinal fluid) | Cmax ([2]; dose 30, cerebrospinal fluid) | Tmax ([2]; dose 30, cerebrospinal fluid) | AUC(0-t) ([2]; dose 30, plasma) | Cmax ([2]; dose 30, plasma) | Tmax ([2]; dose 30, plasma)
1 | CCN1CCN(Cc2cnc(Nc3cc(-c4cc(F)c5nc(C)n(C(C)C)c5c4)c(F)cn3)nc2)CC1 [Compound 1, 5-((4-ethylpiperazin-1-yl)methyl)-N-(5-fluoro-4-(4-fluoro-1-isopropyl-2-methyl-1H-benzo[d]imidazol-6-yl)pyridin-2-yl)pyrimidin-2-amine] | 2080 ng·h/mL | 38.2 mL/min/kg | 4.61 L/kg | 2760 ng·h/mL | 675 ng/mL | 2 h | 65.5% | 33900 ng·h/mL | 3080 ng/mL | 2 h | 77.9% | 12100 ng·h/mL | 535 ng/mL | 4 h | 1290 ng·h/mL | 106 ng/mL | 4 h | 49200 ng·h/mL | 2610 ng/mL | 4 h
2 | CCN1CCN(Cc2ccc(Nc3ncc(F)c(-c4cc(F)c5nc(C)n(C(C)C)c5c4)n3)nc2)CC1 [LY2835219, reference compound] | 1590 ng·h/mL | 50.2 mL/min/kg | 5.79 L/kg | 1310 ng·h/mL | 368 ng/mL | 0.5 h | 41.1% | – | – | – | – | 18100 ng·h/mL | 673 ng/mL | 4 h | 451 ng·h/mL | 11.8 ng/mL | 4 h | 40500 ng·h/mL | 1500 ng/mL | 4 h
